Results reported in patent publication EP4752149A1, “OXYGEN-CONTAINING FUSED TRICYCLIC DERIVATIVE, AND PREPARATION METHOD THEREFOR AND USE THEREOF” (Tuojie Biotech (Shanghai) Co., Ltd., priority 2023, dated 2025).
pIC50: −log10 of the molar value.

Tests used:
Type in all cases: cell-based
[1] = tested on: Human breast cancer cells (SUM-149PT); assay: Inhibitory activity against human breast cancer cells (SUM-149PT), CTG cell viability; details: Homo sapiens, SUM149PT, 120 h, 5 days with compound
Experimental: Human breast cancer cells (SUM-149PT) were cultured using a DMEM culture medium containing 10% FBS in a cell incubator (37 °C, 5% CO2). On day one, the cells were plated in a 384-well plate at a cell concentration of 800 cells/well and cultured overnight in an incubator. On day two, the cells were treated with compounds. The highest compound concentration was 10 µM and was diluted 3-fold to obtain 9 concentrations, and the final concentration of DMSO was 0.2%. After the cells were cultured in the incubator for another 5 days, the cell viability was tested using a CTG Cell Viability Detection Reagent; the testing method was consistent with the method provided by the kit. Data were processed using XLFit, and IC50 was calculated. [formula] X: the logarithm of the compound concentration; Y: % inhibition. Table 14. The IC50 (nM) of a compound of the present disclosure against SUM-149PT

[2] = tested on: Triple-negative breast cancer cells (HCC1806); assay: Inhibitory activity against triple-negative breast cancer cells (HCC1806), CTG cell viability; details: Homo sapiens, 168 h, 7 days with compound
Experimental: Triple-negative breast cancer cells (HCC1806, Nanjing Cobioer Biosciences Co., Ltd.) were cultured using an RPMI 1640 culture medium containing 10% FBS in a cell incubator (37 °C, 5% CO2). On day one, the cells were plated in a 384-well plate at a cell concentration of 200 cells/well and cultured overnight in an incubator. On day two, the cells were treated with compounds. The highest compound concentration was 10 µM and was diluted 3-fold to obtain 9 concentrations, and the final concentration of DMSO was 0.2%. After the cells were cultured in the incubator for another 7 days, the cell viability was tested using a CTG Cell Viability Detection Reagent (MCE); the testing method was consistent with the method provided by the kit. Data were processed using XLfit, and IC50 was calculated. [formula] X: the logarithm of the compound concentration; Y: inhibition%. Table 4. The IC50 (nM) of compounds of the present disclosure against HCC1806

[3] = tested on: Ovarian cancer cells (OVCAR3); assay: Inhibitory activity against ovarian cancer cells (OVCAR3), CTG cell viability; details: Homo sapiens, OVCAR-3, 168 h, 7 days with compound
Summary of the method: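 OVCAR3 cells in RPMI 1640 with 10% FBS, 800 cells/well, treated the day after plating with 9-point 3-fold dilutions from 10 µM top concentration (0.1% DMSO). Viability read by CTG after 7 days at 37 °C, 5% CO2; IC50 fitted from log concentration vs % inhibition.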

pIC50 [1]: 6.59 | pIC50 [2]: 6.82 | pIC50 [3]: 6.17
SMILES: C[C@H]1COc2c(-c3nc(Nc4ccc(N5CCOCC5=O)cc4F)ncc3Cl)cc(F)c3nc(C(C)(C)O)n1c23 [Example 1, (S)-4-(4-((5-Chloro-4-(8-fluoro-2-(2-hydroxypropan-2-yl)-3-methyl-3,4-dihydro-5-oxa-1,2a-diazaacenaphthylen-6-yl)pyrimidin-2-yl)amino)-3-fluorophenyl)morpholin-3-one]
